The term half-life denotes the time in which the quantity being followed falls by half. A high value points to slow decline.

Here are results for two compounds from patent US12599580B2, “Composition comprising a lipid compound, a triglyceride, and a surfactant, and methods of using the same” (BASF AS, priority 2013, dated 2026).

SMILES strings stand for the structures. Structures can show the parent of a compound that is named as a salt. Where two headings read alike, the source gives them in different places.

Data set [1] can be described thus: Phase 1 study, food effect (fed and fasted state), single oral dose. The conditions noted are these: human, plasma; for AUC(0-t): composition No. 27 in capsules, healthy male subjects, read-out: AUC0-24 h. The class given is in vivo, healthy subjects (humans). The source says:
Phase 1 study of 2-((5Z,8Z,11Z,14Z,17Z)-icosa-5,8,11,14,17-pentaenyloxy)butanoic acid (API) assessing the safety, tolerability, PK, and pharmacodynamics (PD) have been performed in healthy individuals. Each group consisted of 6 healthy subjects. The formulation according to the present disclosure included Tween 20 (40 wt %), Miglyol 812N (30 wt %) and API (30 wt %). The API was mixed with other components of the composition as described under “General procedures.” The formulation of this example corresponds to composition No. 27 of Example 1. The premix was filled into capsules and administered orally to humans.

Data set [2] in a line: Phase 1 study, escalating single oral doses 5 to 600 mg. Type of data set: in vivo, healthy subjects (humans). The conditions noted are these: single oral doses between 5 to 600 mg, healthy subjects. As for the experimental part:
Phase 1 study of 2-((5Z,8Z,11Z,14Z,17Z)-icosa-5,8,11,14,17-pentaenyloxy)butanoic acid (API) assessing the safety, tolerability, PK, and pharmacodynamics (PD) has been performed in healthy individuals. Each dose group consisted of 6 healthy subjects. The initial dose of API received was 5 mg, and the maximum dose of API was 600 mg. The API was mixed with other components of the formulations according to Table 20, the premix was filled into capsules and administered orally to humans.
A minimum of 10 days intervene before each dose escalation. Escalating doses are administered to the groups sequentially.

Data set [3] in a line: Phase 1 study, individual variability in pharmacokinetics at 600 mg. The conditions noted are these: single oral dose 600 mg, composition No. 27, healthy male subjects. The class given is in vivo, healthy subjects (humans). How it is done: Phase 1 study of 2-((5Z,8Z,11Z,14Z,17Z)-icosa-5,8,11,14,17-pentaenyloxy)butanoic acid (API) assessing the safety, tolerability, PK, and pharmacodynamics (PD) has been performed in healthy individuals. Each dose group consisted of 6 healthy subjects. The initial dose API received was 5 mg, and the maximum dose was 600 mg. Data presented here are with an API dose of 600 mg. This formulation included Tween 20 (40 wt %), Miglyol 812N (30 wt %) and API (30 wt %). The API was mixed with other components of the composition as described under “General procedures.” The formulation for this example corresponds to composition No. 27 of Example 1. A minimum of 10 days intervene before each dose escalation. Escalating doses were administered to the groups sequentially.

Data set [4] can be described thus: Phase 1 study, pharmacokinetics in male and female, 300 mg b.i.d for 14 days. The class given is in vivo, healthy subjects (humans). The conditions noted are these: for AUC / Cmax: human, plasma, oral, composition No. 27; for AUC: read-out: Geometric mean AUC0-τ; for Cmax: read-out: Geometric mean Cmax. How it is done: Phase 1 study of 2-((5Z,8Z,11Z,14Z,17Z)-icosa-5,8,11,14,17-pentaenyloxy)butanoic acid (API) assessing the safety, tolerability, PK, and pharmacodynamics (PD) has been performed in healthy individuals. Each dose group consisted of 6 healthy subjects. An API dose of 300 mg b.i.d was given orally to males and females for 14 consecutive days. The formulation given included Tween 20 (40 wt %), Miglyol 812N (30 wt %) and API (30 wt %). The API was mixed with other components in the formulation as described under “General procedures.” The formulation of this example corresponds to composition No. 27 of Example 1.

Data set [5] in a line: Solubility of the API in water. Type of data set: physicochemical. From the text: (§1) Thus, low bioavailability is expected.
The nature of data set [6]: Permeability of the API. The class given is in vitro ADME.
From the text: as §1

Data set [7] relates to APOE*3Leiden.CETP transgenic mouse model. The conditions noted are these: cited from earlier work.
Data set [8] can be described thus: Solubility of salts in surfactants and co-solvents. The class given is physicochemical. From the text:
Salts prepared from monovalent counter ions are all highly soluble in surfactants according to the present disclosure and excellent pre-concentrates and SMEDDS can be prepared.

The mark [9] stands for this setting: male, po, 100 mg, Fasted, single oral dose 100 mg API.
Where [10] appears, read: male, po, 100 mg, Fed, single oral dose 100 mg API.

With `CC/C=C\C/C=C\C/C=C\C/C=C\C/C=C\CCCCOC(CC)C(=O)O` (stereo not shown) [API, 2-((5Z,8Z,11Z,14Z,17Z)-icosa-5,8,11,14,17-pentaenyloxy)butanoic acid], the Tmax in data set [1] (both sexes, oral, healthy male and female subjects receiving single doses, read-out: mean Tmax) lay in the range of 1 to 2 h. In data set [1] (setting [9]), the Cmax is 2800 ng/mL, the half-life was 6.36 ± 3.13 h and the AUC(0-t) is 14000 ng·h/mL. Also, in data set [1] (male, po, 100 mg, Fasted, single oral dose 100 mg API, read-out: Tmax), the Tmax was 1.4 h. In addition, in data set [1] (setting [10]), the Cmax came to 2700 ng/mL, the half-life is 6.29 ± 2.13 h and the AUC(0-t) is 15000 ng·h/mL. The Tmax in data set [1] (male, po, 100 mg, Fed, single oral dose 100 mg API, read-out: Tmax) was determined as 3.6 h. For the same compound, the “increase of exposure (Cmax and AUC0-24) with dose” value in data set [2] is given as “higher than dose-proportional manner”. In data set [3], the “% CV (relative variability) of AUC0-24” value is about 15% and the “% CV (relative variability) of Cmax” value is “approximately 10%”. In addition, in data set [4] (300 mg b.i.d, males and females, 14 consecutive days), the “gender differences in pharmacokinetics (Cmax, AUC0-24)” value was “no gender differences in pharmacokinetics”. Also, in data set [4] (Day 14, 300 mg b.i.d), the “AUC Ratio E/M” value was found to be 0.937 and the “Cmax Ratio E/M” value was found to be 1.12. Besides, in data set [4] (Female, Day 14, 300 mg b.i.d), the AUC is 75800 ng·h/mL and the Cmax worked out at 15800 ng/mL. For the same compound, in data set [4] (Male, Day 14, 300 mg b.i.d), the AUC stood at 80900 ng·h/mL and the Cmax was found to be 14100 ng/mL. The solubility in water result in data set [5] is given as “low solubility in water”. In addition, in data set [6], the permeability entry is “low permeability”. In data set [7], the “HDL cholesterol as compared to a control” value was “increased”, the “atherosclerotic lesion areas in the aorta as compared to a control” value is reported as “decreased” and the “total cholesterol as compared to a control” value is reported as “decreased”.
For `CC/C=C\C/C=C\C/C=C\C/C=C\C/C=C\CCCCOC(CC)C(=O)O` (stereo not shown) [magnesium salt, magnesium 2-((5Z,8Z,11Z,14Z,17Z)-icosa-5,8,11,14,17-pentaenyloxy)butanoate], the “solubility in surfactants and co-solvents” value in data set [8] was “medium solubility”.
